Experimental data as given in patent publication US10548829B2, “Oral care compositions and methods of use” (priority 2016, dated 2020).
Where two headings read alike, the source gives them in different places.

Experiments:
[1] = tested on: mixed culture containing Actinomyces viscosus, Lactobacillus casei, Streptococcus oralis, Fusobacterium nucleatum and Veilonella parvula; assay: Growth inhibition (OD610), mixed chemostat culture; assay type: cell-based, A. viscosus, L. casei, S. oralis, F. nucleatum, V. parvula; settings: for % Inhibition: Mixed species incubated in 37° C., 0.0875 mM
Method: (§1) Single species of Streptococcus gordonii (S. gordonii, S.g) strain V288 (ATCC #35105), Streptococcus sobrinus (S. sobrinus, S.$) strain SL1[CCM 6070, CNCTC 9/89] (ATCC #33478), or Aggregatibacter actinomycetemcomitans were analyzed. Also, a mixed culture containing Actinomyces viscosus (A. viscosus, A.v) strain (ATCC, #43146), Lactobacillus casei (L. casei, L.c) strain (ATCC #334), Streptococcus oralis (S. oralis, S. o) strain (ATCC #35037), Fusobacterium nucleatum (F. nucleatum, F. n) strain (ATCC #10953), and Veilonella parvula (V. parvula, V. p) strain (ATCC #17745) was also analyzed for growth inhibition/toxicity activity. Bacteria were cultured overnight in approximately 20 ml of BHI broth (BD, cat #237500) or maintained in a specialized complex modified BHI II medium in a continuous culture chemostat at 37° C. respectively. The following day, the OD610 were determined and solutions diluted to an OD610 of 0.2 or 0.1 respectively for the assay.
(§2) Triclosan (positive control) was prepared as a 10% stock in 100% EtOH and 3 fold serial dilutions were performed in 100% EtOH. An appropriate amount of the diluted samples was then transferred into a 96 well clear plate such that the resulting final concentration of the test samples ranged from either a 2 mM or 4 mM (highest concentration) to 0.0078 mM or 0.0156 mM (lowest concentration respectively) in 2% DMSO in 100 μl media per well. Triclosan (TCN) ranged from 0.01% to 1.67e-6% in 1% EtOH. For Zinc acetate, in order to mimic the 2:1 molar ratio (ligand:Zinc) in the Naringin:Zinc complex, the final concentration ranged from 0.7 mM to 0.0027 mM for samples with 2 mM as the highest concentration and 1.33 mM to […] for samples with 4 mM as the highest concentration in 2% DMSO. Next, 100 μl of bacterial culture at OD610 0.2 were introduced to the wells with the test samples. The wells were thoroughly mixed and incubated at 37° C. overnight. The plates were read using an Envision plate reader (PerkinElmer, Waltham, Mass.) at 610 nm.
(§3) The IC50 for the complex, Product 5, was determined for Streptococcus gordonii (S. gordonii), Streptococcus sobrinus (S. sobrinus), Aggregatibacter actinomycetemcomitans (A. actinomycetemcomitans), and also for the mixed bacterial culture. […] Triclosan (TCN) was included as a positive control for bacterial inhibition.
(§4) Antimicrobial characterization was also performed on mixed culture solutions having at least five microbial species present. A mixed culture containing Actinomyces viscosus (A. viscosus, A.v) (ATCC, #43146), Lactobacillus casei (L. casei, L.c) (ATCC #334), Streptococcus oralis (S. oralis, S.o) (ATCC #35037), Fusobacterium nucleatum (F. nucleatum, F.n) (ATCC #10953) and Veilonella parvula (V. parvula, V.p) (ATCC #17745) was maintained in a specialized complex medium (Modified BHI II Medium) in a continuous culture chemostat at 37° C. Approximately 10 ml of the culture was removed and the OD610 was determined. The assay was performed using cultures at two concentrations; 0.03 and 0.1 at OD610. […] Triclosan (positive control) was prepared as a 10% stock in 100% EtOH and 3 fold serial dilutions were performed in 100% EtOH. […] For Zinc Acetate, in order to mimic the 2:1 ratio (ligand:Zinc) composition as in the complex, the final concentration range from 0.7 mM to 0.0027 mM in 2% DMSO was used instead.
(§5) A 100 μl of bacterial culture at chosen OD610 (0.03 or 0.1) was introduced into the wells with the test samples. The wells were thoroughly mixed and plates incubated overnight in a 37° C. incubator with or without 5% CO2. After approximately 12-13 hours of treatment, the plate was read using Envision plate reader (Serial #1040984), absorbance at 610 nm. The % inhibition relative to control was determined as described for previously described antimicrobial protocols, supra.

[2] = tested on: EpiGingival™ tissue models; assay: Tissue zinc uptake analysis; assay type: in vitro ADME; settings: 2 minute treatment
Method: All samples were prepared in a final concentration of 1% DMSO in 7% of Propylene Glycol (PG). […] For the vehicle only control, 1% DMSO in 7% PG was used. All samples were equilibrated to 37° C. prior to testing.
Zinc uptake studies were performed using EpiGingival™ tissue models from MatTek Corporation. Briefly, EpiGingival™ tissue inserts were equilibrated overnight in 1 ml of the EpiGingival™ assay media (supplied by MatTek Corporation). For testing, working with one insert at a time, the insert was removed and placed inside a clean 6 well plate. Then, 1 ml of the test sample was carefully removed and introduced to the inside of the insert and allowed to incubate for 2 minutes. Next, the samples were removed using an aspirator and the tissue rinsed with 1 ml of warm water (37° C.). This was repeated for 2 more times for a total of 3 washes. At the end of the last wash making sure to remove as much of the water as possible, the tissue was disengaged from the insert with the tip of a sterile forceps, and transferred into a clean 15 ml Falcon tube. The process was repeated until all the tissues were treated. Experiments were performed three times with each test sample assayed in duplicate.
Digestion of Tissues: Briefly, 0.5 ml of a mixture of 7:3 HCl/HNO3 was introduced into a 15 ml Falcon tube containing one of the treated tissue samples and allowed to digest overnight. The following day, 4.5 ml of water was added to each of the digested tissue samples, thoroughly mixed and centrifuged at 4,000 RPM for 10 minutes at room temperature. The clear supernatant (4.5 ml) was transferred into a clean, labeled Falcon tube and submitted for analytical analysis of Zinc.
A one way ANOVA was done to determine the p value. A plot of the average zinc (ppm) against the various treatments was generated (see FIG. 19).

[3] = Growth inhibition (OD610), mixed chemostat culture; assay type: cell-based, A. viscosus, L. casei, S. oralis, F. nucleatum, V. parvula; settings: Mixed species incubated in 37° C.
Method: as §1, §2, §3, §4, §5

[4] = 1 mM complex or combination, 0.33 mM Zinc acetate

Row | Compound | IC50 ([1]; Mixed Species (aerobic)) | IC50 ([1]; Mixed Species (anaerobic), read-out: IC50) [µM] | % Inhibition ([1]; 5% CO2 (anaerobic)) [%] | % Inhibition ([1]; Air (aerobic)) [%] | Zn (ppm) Preparation 1 N1 ([2]; 1 mM complex or combination (0.67 mM + 0.33 mM), 0.33 mM Zinc acetate) [ppm] | Zn (ppm) Preparation 1 N2 [2, 4] [ppm] | Zn (ppm) Preparation 2 N1 [2, 4] [ppm] | Zn (ppm) Preparation 2 N2 [2, 4] [ppm] | Zn (ppm) Preparation 3 N1 [2, 4] [ppm] | Zn (ppm) Preparation 3 N2 [2, 4] [ppm] | Zn Ave (ppm) ([2]; average of three preparations in duplicate) | inhibition at 250 µM ([3]; 5% CO2 (anaerobic), 0.25 mM (combination 0.1625 mM + 0.0875 mM, 0.25 mM total)) [%] | inhibition at 250 µM ([3]; Air (aerobic), 0.25 mM (combination 0.25 mM total)) [%]
1 | CC(=O)[O-].CC(=O)[O-].[Zn+2] [Zinc Acetate alone, Zinc (II) Acetate] | Ambiguous | 250 | −1.46 ± 0.0 | 18.07 ± 2.65 | 0.96 | 0.92 | 0.82 | 0.81 | 0.84 | 0.85 | 0.87 | – | –
2 | C[C@@H]1O[C@@H](O[C@H]2[C@H](Oc3cc(O)c4c(c3)O[C@H](c3ccc(O)cc3)CC4=O)O[C@H](CO)[C@@H](O)[C@@H]2O)[C@H](O)[C@H](O)[C@H]1O [Naringin] | – | – | – | – | – | – | – | – | – | – | – | 3.51 ± 1.53 | 3.1 ± 3.31
